# How the values were obtained:
# [1] = tested on: human ovarian tumor cell xenografts; conditions: nude mice; Pizer, et al. (1996); cited from earlier work
# breast cancer cells = conditions: Pizer, et al. (1996); cited from earlier work
# S14 mRNA [2] = assay: Real-time RT-PCR of S14 mRNA in T47D cells
# S14 mRNA [3] = conditions: Heemers, et al. (2000); cited from earlier work
# FAS mRNA = assay: Real-time RT-PCR of FAS mRNA in T47D cells
# [4] = tested on: lipogenic prostate cancer cells; conditions: Kridel, et al. (2004); cited from earlier work
# [5] = tested on: lipogenic prostate cancer cells xenografts; conditions: immunodeficient mice; Kridel, et al. (2004); cited from earlier work
# human S14 gene promoter = assay: Human S14 gene promoter fragment luciferase reporter; assay type: cell-based; conditions: proximal 4003 bp of human S14 promoter fused to luciferase
# Protocol: (§1) Using a human S14 gene promoter fragment fused to a luciferase reporter, the mechanism underlying R1881-induced accumulation of S14 mRNA was determined. The human S14 construct contained the proximal 4003 bp of the S14 promoter (Campbell, et al. (2003) Endocrinol. 144:5242-5248). […] Nevertheless, R1881 induced promoter activity by 4-fold. Employing a 157 bp fragment of the human FAS gene promoter that is also devoid of progesterone response elements (Swinnen, et al. (1997) supra), the effect of R1881 on FAS gene expression was examined.
# (§2) T47D or HEK 293 cells were plated at 50% confluence in 75 cm^2 flasks and the next morning were transfected with 8 μg plasmid DNA in 48 μL FUGENE (Roche, Indianapolis, Ind.) in 5% charcoal-stripped serum-containing media without antibiotics. To ensure uniform transfection efficiency, cells were trypsinized, mixed, and redistributed into 6-well plates 8 hours later. Forty-eight hours post-transfection, culture medium was removed, and extracts prepared in reporter lysis buffer (250 μL/well; PROMEGA, Madison, Wis.). Lysates (20 μL) were assessed for luciferase activity using an LMaxII384 luminometer (MOLECULAR DEVICES, Sunnyvale, Calif.), and normalized to protein concentrations (BCA Protein Assay; Pierce, Rockland, Ill.).
# S14 protein = assay: Western blot of S14 protein in T47D cells; conditions: single stimulus; R1881 10 nM 48 hours or adenovirus alone
# SREBP-1c mRNA = assay: Real-time RT-PCR of SREBP-1c mRNA in T47D cells; conditions: 10 nM, within 48 hours, cyclophilin as control
# human FAS gene promoter = assay: Human FAS gene promoter fragment luciferase reporter; assay type: cell-based; conditions: 48 hours exposure
# Protocol: as §1, §2
# [6] = time course using nM R5020, T47D cells
# [7] = 10 nM, within 48 hours, T47D cells, cyclophilin as control
smiles,measurement,setting,value
C/C=C/C/C=C/CCC(=O)[C@H]1O[C@H]1C(N)=O [Cerulenin],growth of human ovarian tumor cell xenografts,[1],inhibit the growth
same,apoptosis of breast cancer cells,breast cancer cells,cause apoptosis
CCC(=O)[C@@]1(C)CC[C@H]2[C@@H]3CCC4=CC(=O)CCC4=C3CC[C@@]21C [R5020],"S14 mRNA induction, time course",S14 mRNA [2]; [6],comparable to that observed with R1881
same,lag time between application of the hormone and onset of accumulation of S14 mRNA,"S14 mRNA [2]; time course, T47D cells",> 10 h
same,S14 mRNA induction in T47D cells,S14 mRNA [3],significantly induces
same,"FAS mRNA induction, time course",FAS mRNA; [6],comparable to that observed with R1881
same,lag time between application of the hormone and onset of accumulation of FAS mRNA,"FAS mRNA; time course, T47D cells",> 10 h
CCCCCCCCCCC[C@@H](C[C@@H]1OC(=O)[C@H]1CCCCCC)OC(=O)[C@H](CC(C)C)NC=O [Orlistat],apoptosis of lipogenic prostate cancer cells in culture,[4],causes apoptosis
same,apoptosis of lipogenic prostate cancer cells in xenografts,[5],causes apoptosis
C[C@]1(O)CC[C@H]2[C@@H]3CCC4=CC(=O)CCC4=C3C=C[C@@]21C [R1881],S14 mRNA induction,S14 mRNA [2]; [7],significantly induced
same,S14 mRNA induction by R1881 in presence of control adenovirus (Ad-β-gal),"S14 mRNA [2]; R1881 10 nM, RNA harvested 40 hours later, MOI 50",~8 fold
same,S14 promoter activity induction,human S14 gene promoter,4 fold
same,S14 protein (~16 kD band) on western blot,S14 protein,faint band
same,SREBP-1c mRNA induction,SREBP-1c mRNA,significantly induced
same,FAS promoter induction,human FAS gene promoter; 157 bp fragment of human FAS gene promoter,4 fold
same,"FAS promoter response, construct with sterol response element deleted",human FAS gene promoter,markedly reduced
same,S14 mRNA induction in T47D cells,S14 mRNA [3],significantly induces
same,FAS mRNA induction,FAS mRNA; [7],significantly induced
same,FAS mRNA induction by R1881 in presence of Ad-β-gal,FAS mRNA; T47D cells,~2 fold
